Assay results reported in patent US20250092360A1, “METHODS AND COMPOSITIONS FOR GENERATING SOMATOSTATIN+ INTERNEURONS FROM HUMAN FOREBRAIN NEURAL PROGENITOR CELLS” (Trailhead Biosystems Inc., priority 2023, published 2025).
Entries after “also recorded” stand apart in the source; their conditions may differ.

Experiments:
[1] = tested on: human pluripotent stem cells; test: HD-DoE stage 1, first 12-factor experiment: gene expression (qPCR) after 3-day treatment; type: cell-based; details: for impact on expression of OTX2: dynamic profile / model; for factor contribution, expression of SIX3 / factor contribution, expression of FEZF2: positive impact; for factor contribution, expression of SIX3: model optimized for maximal SIX3, 3-day treatment, qPCR; for factor contribution, expression of FEZF2: model optimized for maximum FEZF2 at 3576
Excerpt: This example utilizes a method of High-Dimensional Design of Experiments (HD-DoE), as previously described in Bukys et al. (2020) […] 23:101346. The method employs computerized design geometries to simultaneously test multiple process inputs and offers mathematical modeling of a deep effector/response space. The method allows for finding combinatorial signaling inputs that control a complex process, such as during cell differentiation. It allows testing of multiple plausible critical process parameters, as such parameters impact output responses, such as gene expression. Because gene expression provides hallmark features of the phenotype of, for example, a human cell, the method can be applied to identify, and understand, which signaling pathways control cell fate. In the current example, the HD-DOE method was applied with the intent to find conditions for induction of […] neural progenitor-expressed genes, directly from the pluripotent stem cell state. To develop the recipe for each stage, the impact of agonists and antagonists of multiple signaling pathways (herein called effectors) on the expression of two sets of 53 pre-selected genes, after a 3-day treatment, has been tested and modeled. These effectors are small molecules or proteins that are commonly used during stepwise differentiation of stem cells to specific fates. Choice of the effectors were based on current literature on neural induction in forebrain region of developing brain and differentiation of stem cells to neural progenitors. To test the effectors, experiments with at least 8 factors were designed that can assess the response of cells to 48 or more different combinations of effectors in a range of concentrations. To analyze the models, we focused on expression of genes involved in development and patterning of the anterior neuroectoderm and forebrain including OTX2 (Hoch et al. (2015) Cell Reports 12:482-494), SIX3 (Lagutin et al. (2003) Genes & Development 17:368-379) and FEZF2 (Zhang et al. (2014) Development 141:4794-[…]). At later stages we focused on dorsoventral patterning of telencephalon and gene expressed in ventral forebrain including NKX2-1 and absence of PAX6 which is a dorsal forebrain marker (Stoykova et al. (2000) J. Neurosci. 20:8042-8050). The impact of each effector on gene expression level is defined by a parameter called factor contribution that is calculated for each effector during the modeling. To identify the recipe for stage 1 of differentiation, 96 different combinations of effectors generated using Design-of-Experiments compression through D-optimality were robotically prepared. The effector combinations were prepared in a basal media and were subsequently added to the cells, which were then allowed to differentiate. Three days later RNA extraction was performed, and gene expression was obtained using quantitative PCR analysis. The data were normalized and modeled using partial least squares regression analysis to the effector design, resulting in the generation of gene-specific models, which after model tuning for maximal Q2 predictive power, provided explanation of the effectors ability to control the expression of individual genes, combinatorically, and individually. Solutions within the tested space could then be explored to address desirability. Optimizing for maximal expression of SIX3 at 3300 and FEZF2 1355 expression values led to robust solutions. This model was derived from testing 12 effectors including AGN193109, LDN193189, CHIR99021, XAV939, IGF2, Purmorphamine, 4-oxo-RA, TTNPB, SR11237, FGF8, PD0325901 and […]. […] The model was also optimized for maximum expression of FEZF2 separately at 3576 expression value to find any additional factors that can boost expression of forebrain genes. […] To find the set of factors that have the potential to optimize all 3 genes in this experiment, a new assessment was done through dynamic profile analysis with focus on maximal expression of OTX2, FEZF2 and SIX3.

[2] = tested on: human pluripotent stem cells; test: HD-DoE stage 1, additional experiment: FEZF2 expression; type: cell-based; details: for impact on expression of FEZF2: dynamic profile, in words; for factor contribution, expression of FEZF2: positive impact, additional stage 1 experiment optimized for FEZF2
How it was run: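 Human pluripotent stem cells were exposed for three days to DoE-designed combinations of effectors in basal medium, including LDN193189, PD173074, BLU9931, purmorphamine, CHIR99021, XAV939, tofacitinib and GO6983 among others. Gene expression was measured by qPCR. Values were normalized and modelled by partial least squares regression against the effector design.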

[3] = tested on: forebrain-committed neural stem cells; test: HD-DoE stage 2, 12-factor experiment: NKX2-1 expression; type: cell-based, human; details: model / dynamic profile, in words
How it was run: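 Forebrain-committed neural stem cells were treated for 3 days after stage 1 in a 12-factor high-dimensional DoE (LDN193189, BMP7, PD0325901, MK2206, A8301, XAV939, CHIR99021, purmorphamine, SANT-1, AGN193109, TTNPB, GSI-XX) to drive ventral forebrain identity. The read-out was NKX2-1 expression. Dynamic profile modelling also targeted minimal PAX6 and NKX2-2.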

[4] = tested on: human pluripotent stem cells; test: Factor criticality analysis, stage 1 recipe (dynamic profile analysis); type: cell-based; details: other five stage 1 factors present, FIG. 11; for expression level of FEZF2 when the factor is removed: 2000 with all six factors; for expression level of SIX3 when the factor is removed: 3000 with all six factors; for expression level of OTX2 when the factor is removed: 5500 with all six factors
Excerpt: To assess the impact of the elimination of each validated factor, dynamic profile analysis was used and compared the expression level of genes of interest in absence of each finalized factor while others are present. […] When Purmorphamine was removed, levels of FEZF2 and SIX3 were decreased to 1000 and below 3000, while levels of OTX2 increased to 6500.

[5] = dynamic profile analysis, in words

| Compound | factor contribution, important input for high expression of SIX3 ([1]; FIG. 2 legend) | impact on expression of OTX2 ([1]; in words) | factor contribution, expression of OTX2 ([1]; positive effector, model optimized for maximum OTX2 at 6348) | factor contribution, expression of SIX3 [1] | factor contribution, expression of FEZF2 [1] | impact on expression of FEZF2 [2] | factor contribution, expression of FEZF2 [2] | impact on expression of NKX2-1 [3] | expression level of FEZF2 when the factor is removed [4] | expression level of SIX3 when the factor is removed [4] | expression level of OTX2 when the factor is removed [4] | impact on expression of FEZF2 [1, 5] | impact on expression of SIX3 [1, 5] |
| --- | --- | --- | --- | --- | --- | --- | --- | --- | --- | --- | --- | --- | --- |
| c1ccc2c(-c3cnn4cc(-c5ccc(N6CCNCC6)cc5)cnc34)ccnc2c1 [LDN193189] | 24.9 | positive impact | 8 | 16 | 25 | positive impact | 18 | increase | 1000 | 0 | 4000 |  |  |
| O=C(NOC[C@H](O)CO)c1ccc(F)c(F)c1Nc1ccc(I)cc1F [PD0325901] |  | positive impact |  |  | 10 | positive impact | 15 | increase; also recorded: Positive impact | drop | did not have a significant impact | did not have a significant impact |  |  |
| c1ccc2c(Oc3nc(Nc4ccc(N5CCOCC5)cc4)c4ncn(C5CCCCC5)c4n3)cccc2c1 [Purmorphamine] |  | negative effect |  | 5 | 7 | positive impact | 11 | increase | 1000 | below 3000 | 6500 | positive impact | positive impact |
